In patent publication US20210386779A1, “COMPOSITIONS AND METHODS FOR DIETARY ENHANCEMENT OF IMMUNE SYSTEM FUNCTION” (priority 2020, published 2021):

Experiments:
[1] = tested on: COVID-19 and other flu-like illnesses (SARS-CoV-2); assay: 20-week clinical study: test group taking the core formulations monitored for symptoms of flu-like illness, with focus on COVID-19; format: in vivo, human; settings: for prophylactic efficacy against COVID-19 and other flu-like illnesses (conclusion in words): 20-week study; for symptomatic control group subjects (of 12) who had maintained supplementation with this component alone, without other core formulation components: 20 weeks, vitamin C 500-1000 mg daily, vitamin D3 1000-2000 IU daily
Source text: From late February/early March 2020, we recommended to patients seen in-office (and to numerous telemedicine patients) and to our staff members to follow a regimen of at least the core formulations. Of in-office patients and staff, 54 subjects started with the study's voluntary OTC regimen and, thereby, constituted the study test group (reduced to 53 subjects after the second study week by a voluntary withdrawal); while 60 declined the regimen—for reasons, when given, involving implementation's complexity and/or effort; and/or indicating barriers to implementation stemming from educational and/or socio-economic background—and constituted the study control group.
Over the study period, we monitored subjects for symptoms of flu-like illness, with an active focus on COVID-19. At the outset of the pandemic, our practice's access to COVID-19 testing was quite limited. At that point, we identified subjects as confirmed COVID-19 cases or, at least, as likely COVID-19 cases upon their earliest presentation of clinical symptoms of COVID-19; or upon their being test-confirmed as COVID cases as documented in locales and practices where testing was available. Asymptomatic/pre-symptomatic subjects—with special note taken of documented, self-reported or likely exposure to diagnosed or suspected COVID-19 cases—as well as subjects presenting symptoms of unspecified flu-like illnesses, were followed for subsequent development of COVID-19 symptoms. As testing became more available, the state/regional protocols were such that we would receive notification of individual ones among our subjects having tested positive, the testing generally conducted by a subject's primary care provider, and the notifications then sent by Ohio health agencies to all the infected patient's physicians.
One dose daily of the full core formulation regimen, as per Table 2.
Over the study period of 20+ weeks, we monitored 113 subjects (104 in-office patients and 9 staff members) for clinical symptoms of flu-like illnesses, with subsequent differential diagnosis (and, when available, with test-confirmation) of each symptomatic subject to distinguish COVID-19 from non-COVID-19 flu-like illness. We also maintained data of reported and/or observed subject exposures to clinical and/or test-confirmed cases of COVID-19.
The OTC regimen undertaken by test group subjects included the core formulations of zinc, zinc ionophores, vitamins and l-lysine, as well as at least some of the methods. […]

[2] = Supplement-specific monitoring for side effects and toxicity over the study period; design: species or system human; settings: in vivo, po
Source text: Monitoring tor such side effects is expected to continue over and beyond the period of quina bark extract administration.
It appears to be appropriate to continue monitoring for oncological side effects over and beyond the period of quercetin administration.

[3] = molecular target: SARS-CoV-2 viral S-spike binding to cells (UniProt P0DTC2+Q9BYF1); settings: supercomputer docking; cited from earlier work

With `O=C1O[C@H]([C@@H](O)CO)C(O)=C1O` [vitamin C] the “prophylactic efficacy against COVID-19 and other flu-like illnesses (conclusion in words)” value [1] was “relative lack of anti-flu/anti-COVID-19 prophylactic efficacy” and the “symptomatic control group subjects (of 12) who had maintained supplementation with this component alone, without other core formulation components” value [1] was “at least four”.
In the case of `O=c1c(O)c(-c2ccc(O)c(O)c2)oc2cc(O)cc(O)c12` [quercetin], the “complications, side effects or toxicity observed over the study period” value [2] is given as “received no reports nor found any clinical signs of quercetin toxicity” and the “rank for inhibition of SARS-CoV-2 viral S-spike binding to cells among FDA-approved compounds” value [3] is given as “fifth out of twenty top performers”.
In the case of `C=C1CC[C@H](O)C/C1=C/C=C1\CCC[C@]2(C)[C@@H]([C@H](C)CCCC(C)C)CC[C@@H]12` [vitamin D3], the “prophylactic efficacy against COVID-19 and other flu-like illnesses (conclusion in words)” value [1] is reported as “relative lack of anti-flu/anti-COVID-19 prophylactic efficacy” and the “symptomatic control group subjects (of 12) who had maintained supplementation with this component alone, without other core formulation components” value [1] is reported as “at least three”.
